Reference: ChEMBL document CHEMBL1201862, “PubChem BioAssay data set” (2004)
Activity calls are given as the source filed them. For most assays here, no stated cut-off is given here; in the data, actives have a measured AC50 and inactives only a lower limit.

Assays:
HeLa = assay: ATP-based viability loss in HeLa cells – cell-based, CellTiter-Glo luminescence, cherry-pick samples, cytotoxicity control for MITF activator project, dose response (AID 540259); format: functional; settings: Homo sapiens
Escherichia coli = assay: microbe, parasite or virus in culture
CAAX prenyl protease 2 = CAAX prenyl protease 2 (Homo sapiens, UniProt Q9Y256); assay: inhibition of Ras-converting CAAX protease Rce1 – biochemical, yeast membranes, quenched-peptide fluorescence, cherry-pick, dose response (AID 588849)
Chain of CAAX prenyl protease 2 (Q9Y256 whole entry): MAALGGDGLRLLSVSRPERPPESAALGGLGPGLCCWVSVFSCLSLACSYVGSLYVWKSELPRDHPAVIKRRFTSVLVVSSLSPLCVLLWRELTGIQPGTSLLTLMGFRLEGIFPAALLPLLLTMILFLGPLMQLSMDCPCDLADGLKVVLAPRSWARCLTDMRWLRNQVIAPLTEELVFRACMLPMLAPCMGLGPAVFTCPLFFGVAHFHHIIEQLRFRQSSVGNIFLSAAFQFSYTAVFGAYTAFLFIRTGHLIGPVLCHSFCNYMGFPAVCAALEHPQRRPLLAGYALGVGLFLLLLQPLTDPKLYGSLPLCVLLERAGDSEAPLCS

Trypsin = Trypsin (Sus scrofa, UniProt P00761); assay: trypsin protease activity blockade – biochemical, quenched peptide fluorescence, cherry-pick, selectivity assay for Rce1 protease inhibitor project, dose response (AID 488789)
Chain of Trypsin (P00761 whole entry): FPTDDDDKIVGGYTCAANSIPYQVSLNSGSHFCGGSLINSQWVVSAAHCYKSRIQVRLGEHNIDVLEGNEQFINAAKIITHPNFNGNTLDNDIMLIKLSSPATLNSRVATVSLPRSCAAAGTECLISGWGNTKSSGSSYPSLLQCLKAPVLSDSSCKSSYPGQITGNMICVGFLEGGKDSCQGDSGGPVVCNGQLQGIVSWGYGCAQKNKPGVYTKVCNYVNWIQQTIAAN

HEK293 = assay: cells; format: functional, cell-based; settings: Homo sapiens
[1] = target: T1, Nuclear receptor subfamily 0 group B member 1 (Homo sapiens, UniProt P51843); assay: Luminescence-based cell-based high throughput dose response assay for inhibitors of the orphan nuclear receptor subfamily 0, group B, member 1 (DAX1; NR0B1). [Related pubchem assays (depositor defined):AID504766, AID504790]; format: functional
T1 sequence (P51843 whole entry): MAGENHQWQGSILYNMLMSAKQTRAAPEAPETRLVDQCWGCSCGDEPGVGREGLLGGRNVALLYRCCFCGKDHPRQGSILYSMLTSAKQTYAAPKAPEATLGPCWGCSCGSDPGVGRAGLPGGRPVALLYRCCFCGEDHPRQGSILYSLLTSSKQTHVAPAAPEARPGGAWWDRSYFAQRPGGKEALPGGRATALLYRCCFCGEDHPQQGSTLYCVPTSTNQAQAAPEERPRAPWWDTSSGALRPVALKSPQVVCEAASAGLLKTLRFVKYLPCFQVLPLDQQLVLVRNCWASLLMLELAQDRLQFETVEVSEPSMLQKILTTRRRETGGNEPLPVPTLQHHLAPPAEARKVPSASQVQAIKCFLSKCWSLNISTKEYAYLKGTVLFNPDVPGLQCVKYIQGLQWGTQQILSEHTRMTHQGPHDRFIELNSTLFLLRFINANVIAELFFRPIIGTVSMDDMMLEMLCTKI

| SMILES | AC50 (HeLa) | IC50 (HEK293) | IC50 [1] | further results |
| --- | --- | --- | --- | --- |
| CCCC(=O)c1ccc(N2CCCCCC2)c(F)c1 | 205 µM (active) |  |  |  |
| CCCc1cc(-c2ccc3c(c2)COc2c4ccccc4nn2-3)on1 | 40 µM (active) |  |  |  |
| COc1ccc(-n2c(Cc3cccn3C)nnc2SCC(=O)Nc2ccc(C(C)=O)cc2)cc1 |  |  |  | AC50 (Escherichia coli): 56.8 µM (active) |
| OCCCNc1ncnc2sc(-c3ccccc3)cc12 |  |  |  | AC50 (CAAX prenyl protease 2): 8.43 µM (active); AC50 (Trypsin): 7.39 µM (active) |
| O=C(CCCC(=O)N1CCN(c2ccccc2F)CC1)c1ccccc1 |  | > 67.5 µM (inactive) | > 67.5 µM (inactive) |  |
| CC(=O)Nc1cc(C)c2nc(NC(C)=O)sc2c1 |  | > 67.6 µM (inactive) | > 67.6 µM (inactive) |  |
